# According to US9890192B2, “Targeted nitroxide agents” (University of Pittsburgh—of the Commonwealth System of …, priority 2008, dated 2018):
# Tests used:
# [1] = system: rat ileal mucosal permeability; test: Intestinal mucosal permeability assay (FD4) after hemorrhagic shock; assay type: in vivo
# Procedure: Intestinal mucosal permeability assay. Animals were allowed access to water but not food for 24 h prior to the experiment in order to decrease the volume of intestinal contents. The rats were instrumented as described above. A midline laparotomy was performed and the small intestine was exteriorized from the duodenojejunal junction to the ileocecal valve. A small incision was made on the antimesenteric aspect of the proximal small intestine and saline solution (1.5 ml) was injected. The bowel was ligated proximally and distally to the incision with 4-0 silk (Look, Reading, Pa.).
# The small intestine was compressed gently in aboral direction along its length to displace intestinal contents into the colon. Starting 5 cm from the ileocecal valve, the ileum was partitioned into six contiguous water-tight segments. Each segment was 3 cm long and was bounded proximally and distally by constricting circumferential 4-0 silk sutures. Care was taken to ensure that the vascular supply to intestine was not compromised, and each segment was well-perfused.
# Two randomly selected segments in each rat were injected with 0.3 ml of vehicle and served as “no treatment” controls. In order to fill the segments, a small incision was made and the solution was injected using a Teflon catheter (Abbocath 16Ga, Abbot Laboratories).
# The remaining four other segments were injected with solutions containing either 4-hydroxy-2,2,6,6-tetramethylpiperidine-N-oxyl (TEMPOL) or one of the Gramicidin S-based compounds. Four different final concentrations of TEMPOL in normal saline were evaluated: 0.1, 1, 5 and 20 mM. The hemigranmicidin-based compounds were dissolved in a mixture of dimethylsulfoxide (DMSO) and normal saline (1:99 v/v) and injected at final concentrations of 0.1, 1, 10 or 100 μM. […]
# Fluorescence of FD4 in the solution inside the beaker and within each gut sac was measured using a fluorescence spectrophotometer (LS-50, Perkin-Elmer, Palo Alto, Calif.) at an excitation wavelength of 492 nm and an emission wavelength of 515 nm. […]
# [2] = system: rats subjected to volume-controlled hemorrhagic shock; test: Survival of rats subjected to volume-controlled hemorrhagic shock; assay type: in vivo, rat; settings: 2 μmol/kg intravenous; for survival vs vehicle: last 20 min of hemorrhage
# Procedure: Survival of rats subjected to volume-controlled hemorrhagic shock. Following surgical preparation and a 5-min stabilization period to obtain baseline readings, rats were subjected to hemorrhagic shock. Bleeding was carried out in 2 phases.
# Initially, 21 ml/kg of blood was withdrawn over 20 min. Immediately thereafter, an additional 12.5 ml/kg of blood was withdrawn over 40 min. Thus, hemorrhage occurred over a total period of 60 min and the total blood loss was 33.5 ml/kg or approximately 55% of the total blood volume. Rats were randomly assigned to receive XJB-5-131 (2 μmol/kg) or its vehicle, a 33:67 (v/v) mixture of DMSO and normal saline. XJB-5-131 solution or vehicle alone was administered as a continuous infusion during the last 20 min of the hemorrhage period. The total volume of fluid infused was 2.8 ml/kg and it was administered intravenously using a syringe pump (KD100, KD Scientific, New Hope, Pa.). […] At the end of the 6 hour observation period, animals that were still alive were euthanized with an overdose of KCl.
# A total of sixteen rats were tested in this study. Rats were treated with 2.8 ml/kg of vehicle or the same volume of XJB-5-131 solution during the final 20 min of the bleeding protocol. The total dose of XJB-5-131 infused was 2 μmol/kg. Following profound hemorrhagic shock consistent with the protocol described above for the prior studies, thirteen survived for at least 60 min and received the full dose of either XJB-5-131 solution or the vehicle, a 33:67 (v/v) mixture of DMSO and normal saline. […] None of the between-group differences were statistically significant.
# [3] = system: MEF cells from Ercc1−/− mouse embryos; test: Senescence, DNA damage and apoptosis in Ercc1−/− MEF cells under ambient oxygen; assay type: cell-based; settings: 500 nM
# Procedure: Graphs showing weight over time of treated, untreated and control animals are shown in FIG. 36A-B. To assess the impact of XJB-5-131 at a cellular level, a number of experiments were carried out using mouse embryonic fibroblasts (“MEF”) cells harvested from Ercc1^−/− mouse embryos.
# [4] = system: p16 in primary MEFs from Ercc1−/− mouse embryos; test: p16 immunofluorescence in Ercc1−/− MEFs under 20% oxygen; assay type: cell-based; settings: 1 uM, 48 hrs
# Procedure: To test the protective activity of JP4-039, cultures of primary MEFs were prepared from Ercc1^−/− mouse embryos and grown under 20% oxygen (ambient air), which creates oxidative stress in these cells that are hypersensitive to reactive oxygen species. The cells were then either treated with a concentration of 1 uM XJB-5-131, JP4-039, JED-E71-37 or JED-E71-58, or left untreated (media), and then after 48 hrs the level of p16, a marker of irreversible cellular senescence, was measured by immunofluorescence staining.
smiles,measurement,setting,value
CC(C)C[C@@H](/C=C/[C@H](Cc1ccccc1)C(=O)N1CCC[C@H]1C(=O)N[C@H](C(=O)N[C@@H](CCCNC(=O)OCc1ccccc1)C(=O)NC1CC(C)(C)N([O])C(C)(C)C1)C(C)C)NC(=O)OC(C)(C)C [XJB-5-131],potency relative to TEMPOL,[1]; from lowest effective concentrations,~1000 fold
same,"hemorrhagic shock-induced mucosal hyperpermeability, of the control value",[1]; intraluminal,approximately 60%
same,lowest effective concentration,[1]; intraluminal,1 µM
same,rats surviving longer than 3 hours after completion of the hemorrhage protocol,[2],Three of the six
same,rats surviving the whole 6 hour post-bleeding observation period,[2],one
same,survival vs vehicle,[2],survived significantly longer
same,survival vs vehicle,[2]; listed as XJR-5-131,significantly prolonged the survival
same,SA-β galactosidase staining,[3],notably less
same,apoptosis,[3],did not reduce the amount of apoptosis
same,γH2AX foci,[3],reduce the number of γH2AX foci
same,level of p16,[4],less effective
